System: ubiquitin-proteasome system
Assay: Screening for degradation-terminating peptide: FRET fluorescence imaging of probe reagents expressed in HeLa cells
Type: cell-based
Conditions: CyPet/YPet probe with Geminin (1/110) degron
Text: In order to develop a probe reagent of interest, p105 was screened for a peptide sequence capable of terminating degradation. CyPet as a fluorescent protein I, YPet as a fluorescent protein II, and Geminin as a degron protein were used to prepare an experimental probe reagent (FIG. 2). The fluorescent protein CyPet is derived from CFP and has an excitation wavelength peak of 435 nm and a fluorescence wavelength peak of 477 nm. The fluorescent protein YPet is derived from YFP and has an excitation wavelength peak of 517 nm and a fluorescence wavelength peak of 530 nm. This pair is known to efficiently cause FRET with CyPet as a donor and YPet as an acceptor. The protein Geminin is a factor controlling the progression of cell cycle and has the function of inhibiting the licensing of DNA replication (Cell 1998; 93 (11): 1043-1053; and Am. J. Pathol. 2002; 161 (1): 267-273). Its abundance is strictly controlled during cell cycle so that its expression level increases in the S/G2/M phases and this protein disappears due to the promoted degradation by the ubiquitin-proteasome system in the G1 phase. A region of N-terminal amino acids 1-110 (Geminin (1/110)) containing a moiety necessary for the degradation of the Geminin molecule was selected from the structure of Geminin (e.g., NM_015895 (human, SEQ ID NOs: 18 and 19), NM_020567 (mouse)) and used in this experiment.
The respective cDNAs of these molecules were amplified by PCR and ligated by insertion to each restriction enzyme site in the multicloning site of a cloning vector pBluescript II SK(+) (Stratagene) to prepare gene DNA of the probe reagent. A region of amino acids 366-440 in human-derived p105 (SEQ ID NOs: 16 and 17) was screened for a peptide sequence for terminating degradation. This region contains GRR and processing point.
The prepared gene DNA of the probe reagent was then excised from the pBlueScript vector with restriction enzymes, and this fragment was inserted into the multicloning site of an expression vector CSII-EF-MCS to prepare a vector for expression in cultured cells.
HeLa cells were cultured in a Dulbecco's modified Eagle's medium containing 10% fetal bovine serum in a 35 mmφ glass-bottomed dish. The prepared vector plasmid was mixed with a transfection reagent FuGENE (Roche Applied Science) and added to the medium. The HeLa cells were cultured in a CO2 incubator for 2 days so that the cells expressed the probe reagent and experienced cell cycle.
This is because the intramolecular nuclear localization signal of the Geminin protein, which functions in the nucleus, allowed the probe reagent to be selectively incorporated into the nucleus. The amount of Geminin changes periodically depending on the promoted or suppressed degradation by the ubiquitin-proteasome system in accordance with cell cycle. If the degradation of the probe reagent accompanying the degradation of Geminin is terminated by the degradation-terminating peptide, CyPet accumulates in the cell during every cell cycle without being degraded and thus reduces an YPet/CyPet fluorescence intensity ratio serving as an index value for FRET at the time of CyPet excitation. After the degradation of Geminin, the probe reagent lacks the nuclear localization signal. As a result, the remaining CyPet molecule also becomes distributed in the cytoplasm. The cells were fluorescently imaged from these viewpoints and screened for a peptide capable of terminating degradation.
An inverted microscope (IX70, Olympus Corp.) was used in cell observation. Fluorescence images were obtained using a 3-CCD cooled color camera (ORCA-3CCD, Hamamatsu Photonics K.K.). This camera can simultaneously capture images in three wavelength (red, green, and blue) regions and merge them to form observable color images. Also, it can individually measure the brightness of the image in each wavelength region. After excitation with a 440 nm band-pass filter, the fluorescence images of the cells were obtained through a 460 nm long-pass filter. […]

Substance | ability of the peptide to terminate degradation of the probe reagent
GRR: glycine-rich region, amino acids 376-404 of human p105, tested alone as degradation-terminating peptide | failed to terminate the degradation
p105 (376/409): probe reagent containing human p105 amino acids 376-409 (SEQ ID NO: 11) (GGGSGAGAGGGGMFGSGGGGGGTGSTGPGYSFPH; listed as Homo sapiens) | capable of efficiently terminating protein degradation
p105 (376/420): probe reagent containing human p105 amino acids 376-420 (SEQ ID NO: 9) (GGGSGAGAGGGGMFGSGGGGGGTGSTGPGYSFPHYGFPTYGGITF; listed as Homo sapiens) | capable of efficiently terminating protein degradation
p105 (376/434): probe reagent containing human p105 amino acids 376-434 (SEQ ID NO: 7) (GGGSGAGAGGGGMFGSGGGGGGTGSTGPGYSFPHYGFPTYGGITFHPGTTKSNAGMKHG; listed as Homo sapiens) | capable of efficiently terminating protein degradation
p105 (382/440): probe reagent containing human p105 amino acids 382-440 (SEQ ID NO: 3) (GAGGGGMFGSGGGGGGTGSTGPGYSFPHYGFPTYGGITFHPGTTKSNAGMKHGTMDTES; listed as Homo sapiens) | capable of efficiently terminating protein degradation
p105 (392/440): probe reagent containing human p105 amino acids 392-440 (SEQ ID NO: 5) (GGGGGGTGSTGPGYSFPHYGFPTYGGITFHPGTTKSNAGMKHGTMDTES; listed as Homo sapiens) | capable of efficiently terminating protein degradation
